Reference: patent publication US12421254B2, “KRAS modulators and uses thereof” (Quanta Therapeutics, Inc., priority 2023, dated 2025)

Tests used:
[1] = test system: phospho-ERK in GP2D (KRAS-G12D) cells; experiment: pERK In Cell Western (ICW) assay (Method B), GP2D; assay type: cell-based; details: GP2d, 3 h, Table 4
Procedure: (§1) pERK ICW is a high throughput screening assay to evaluate the cellular potency of mutant KRAS small molecule inhibitors. KRAS mutant cell lines AGS, GP2D (KRAS-G12D) as well as SW620 (KRAS-G12V) were purchased from ATCC and maintained respectively in RPMI/DMEM/RPMI medium supplemented with 10% fetal bovine serum.
(§2) Cells grown in exponential phase were trypsinized, resuspended in fresh media, and viable cells were counted using a cell counter with Trypan Blue (BioRad TC20). Cells were seeded into 384-well plate (Greiner 781091) at density of 5,000 cells/well for AGS and 10,000 cells/well for GP2D/SW620 and allowed to grow overnight in a 37° C. CO2 incubator. The next day, compounds were dispensed into wells with a ½ log, 9-point serial dilution using a Tecan D300e dispenser and incubated for 3 hours in a 37° C. CO2 incubator. Cells were then fixed with paraformaldehyde (Electron Microscopy Sciences, 15710, 4% final concentration) for 30 min, permeabilized with wash buffer (1×PBS+0.1% Triton X-100) for 30 min and blocked with Odyssey blocking buffer (Li—COR 927-70001) for 1 hour, all at room temperature (RT). Phospho-ERK antibody (CST 4370L) was diluted 1:500 in Odyssey T20 (PBS) antibody diluent (Li—COR 927-75001) and incubated with cells overnight at 4° C. The next day, plates were washed 5× with wash buffer, incubated with IRDye 800 CW, Goat anti-Rabbit secondary antibody (Li—COR 926-32211, 1:800) and DRAQ5 (CST 4084L, 1:5,000) diluted in Odyssey T20 (PBS) antibody diluent for 1 hour, washed 5×, and imaged on an Odyssey CLx imaging system.
(§3) For data analysis, signal intensities from 800 (phosphor-ERK) and 700 (DRAQ5) channels were extracted, and phospho-ERK signals were normalized to DRAQ5 signals for each well and percent of blank control values were computed. Data were then imported into Graphpad Prism to compute half-maximal inhibitory concentrations (IC50) using a 4-parameter variable slope model. Z-factor for each plate was computed from signals derived from wells treated with either DMSO or 5 μM of control compound. AGS pERK ICW (Method B) IC50 (uM) values of selected compounds are depicted in Table 2 with compounds having a value ≥0.001 uM to 0.01 uM as ++++; ≥0.01 uM to 0.1 uM as +++; ≥0.1 uM to 1 uM as ++; ≥1 uM to 10 uM as + and ≥10 uM as NA.

[2] = target: GST-tagged KRAS-G12V (2-169) (Homo sapiens, UniProt P01116, G12V); experiment: Nucleotide exchange assay (NEA), SOS-mediated, HTRF, KRAS G12V; assay type: biochemical; details: Table 4; IC50 extracted at 90 min; 80 nM SOS
Chain of GST-tagged KRAS-G12V (2-169) (P01116 2-169 isoform P01116-2 G12V): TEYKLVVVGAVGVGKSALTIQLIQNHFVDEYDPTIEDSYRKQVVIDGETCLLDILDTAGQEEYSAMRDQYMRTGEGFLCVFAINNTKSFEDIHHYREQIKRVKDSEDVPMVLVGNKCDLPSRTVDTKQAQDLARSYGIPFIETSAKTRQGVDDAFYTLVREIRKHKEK
Summary of the method: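 GST-KRAS-G12V (2-169), 0.25 nM, pre-incubated 1 h at RT with compound, then SOS1cat (564-1049) 80 nM and GTP-DY-647P1 150 nM added in HEPES pH 7.3 buffer with MgCl2 and DTT. HTRF via anti-GST Tb cryptate read over 90 min; IC50 from 4-parameter fit at 90 min, blanked to no-SOS reactions.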

[3] = target: GST-tagged KRAS-G12D (2-169) (Homo sapiens, UniProt P01116, G12D); experiment: Nucleotide exchange assay (NEA), SOS-mediated, HTRF, KRAS G12D; assay type: biochemical; details: Table 4; IC50 extracted at 30 min; 20 nM SOScat; read-out: NEA G12D IC50
Chain of GST-tagged KRAS-G12D (2-169) (P01116 2-169 isoform P01116-2 G12D): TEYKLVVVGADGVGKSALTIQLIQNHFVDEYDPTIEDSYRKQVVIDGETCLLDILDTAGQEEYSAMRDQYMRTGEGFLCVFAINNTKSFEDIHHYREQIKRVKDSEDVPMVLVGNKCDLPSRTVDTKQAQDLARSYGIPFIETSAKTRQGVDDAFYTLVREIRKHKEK
Summary of the method: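 Compound preincubated 1 h at RT with 0.25 nM GST-KRAS-G12D (2-169) and anti-GST Tb donor, then 20 nM SOS1cat (564-1049) and 150 nM GTP-DY-647P1 added; pH 7.3 HEPES buffer with MgCl2 and DTT. HTRF monitored at RT; % inhibition versus DMSO and no-SOS blank, 4-parameter IC50 taken at 30 min.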

[4] = test system: phospho-ERK in SW620 (KRAS-G12V) cells; experiment: pERK In Cell Western (ICW) assay (Method B), SW620; assay type: cell-based; details: Homo sapiens, SW-620, 3 h, Table 4
Procedure: as §1, §2, §3

## C[C@@H]1[C@H](CO)CCCN1c1nc(OC[C@@]23CCCN2C[C@H](F)C3)nc(N2CC3(CCc4sc(N)c(C#N)c43)C2)n1 (racemic) [Compound 24, 2-amino-1′-[4-[[(2R,8S)-2-fluoro-1,2,3,5,6,7-hexahydropyrrolizin-8-yl]methoxy]-6-[rac-(2R,3R)-3-(hydroxymethyl)-2-methyl-1-piperidyl]-1,3,5-triazin-2-yl]spiro[5,6-dihydrocyclopenta[b]thiophene-4,3′-azetidine]-3-carbonitrile]
[1]
  IC50: 1000 to 20000 nM
[2]
  IC50: 100 to 1000 nM
[3]
  IC50: 100 to 1000 nM

## N#CCC1C=C(F)CN(c2nc(OC[C@@]34CCCN3C[C@H](F)C4)nc(N3CC4(CCc5sc(N)c(C#N)c54)C3)n2)C1 (stereo partly drawn) [Compound 25, 2-amino-1′-[4-[3-(cyanomethyl)-5-fluoro-3,6-dihydro-2H-pyridin-1-yl]-6-[[(2R,8S)-2-fluoro-1,2,3,5,6,7-hexahydropyrrolizin-8-yl]methoxy]-1,3,5-triazin-2-yl]spiro[5,6-dihydrocyclopenta[b]thiophene-4,3′-azetidine]-3-carbonitrile]
[1]
  IC50: 100 to 1000 nM
[2]
  IC50: 10 to 100 nM
[3]
  IC50: 10 to 100 nM

## N#Cc1c(N)sc2c1C1(CC2)CN(c2nc(OC[C@@]34CCCN3C[C@H](F)C4)nc(N3C[C@H](O)C[C@@H](O)C3)n2)C1 [Compound 26, 2-amino-1′-[4-[(3R,5R)-3,5-dihydroxy-1-piperidyl]-6-[[(2R,8S)-2-fluoro-1,2,3,5,6,7-hexahydropyrrolizin-8-yl]methoxy]-1,3,5-triazin-2-yl]spiro[5,6-dihydrocyclopenta[b]thiophene-4,3′-azetidine]-3-carbonitrile]
[1]
  IC50: ≥ 20000 nM
[2]
  IC50: 10 to 100 nM
[3]
  IC50: 10 to 100 nM

## N#CCN(CC(F)F)c1nc(OC[C@@]23CCCN2C[C@H](F)C3)nc(N2CC3(C2)SCc2sc(N)c(C#N)c23)n1 [Compound 242, 2-amino-1′-[4-[cyanomethyl(2,2-difluoroethyl)amino]-6-[[(2R,8S)-2-fluoro-1,2,3,5,6,7-hexahydropyrrolizin-8-yl]methoxy]-1,3,5-triazin-2-yl]spiro[6H-thieno[3,4-b]thiophene-4,3′-azetidine]-3-carbonitrile]
[2]
  IC50: < 10 nM
[3]
  IC50: < 10 nM
[4]
  IC50: 10 to 100 nM

## C#CCN(CC#N)c1nc(OC[C@@]23CCCN2C[C@H](F)C3)nc(N2CC3(C2)SCc2sc(N)c(C#N)c23)n1 [Compound 243, 2-amino-1′-[4-[cyanomethyl(prop-2-ynyl)amino]-6-[[(2R,8S)-2-fluoro-1,2,3,5,6,7-hexahydropyrrolizin-8-yl]methoxy]-1,3,5-triazin-2-yl]spiro[6H-thieno[3,4-b]thiophene-4,3′-azetidine]-3-carbonitrile]
[2]
  IC50: < 10 nM
[3]
  IC50: < 10 nM
[4]
  IC50: 100 to 1000 nM

## C#CC(C)N(CC#N)c1nc(OC[C@@]23CCCN2C[C@H](F)C3)nc(N2CC3(C2)SCc2sc(N)c(C#N)c23)n1 (stereo partly drawn) [Compound 244, 2-amino-1′-[4-[cyanomethyl(1-methylprop-2-ynyl)amino]-6-[[(2R,8S)-2-fluoro-1,2,3,5,6,7-hexahydropyrrolizin-8-yl]methoxy]-1,3,5-triazin-2-yl]spiro[6H-thieno[3,4-b]thiophene-4,3′-azetidine]-3-carbonitrile]
[2]
  IC50: < 10 nM
[3]
  IC50: < 10 nM
[4]
  IC50: 100 to 1000 nM

## N#CCN(Cc1c[nH]nn1)c1nc(OC[C@@]23CCCN2C[C@H](F)C3)nc(N2CC3(C2)SCc2sc(N)c(C#N)c23)n1 [Compound 245, 2-amino-1′-[4-[cyanomethyl(1H-triazol-4-ylmethyl)amino]-6-[[(2R,8S)-2-fluoro-1,2,3,5,6,7-hexahydropyrrolizin-8-yl]methoxy]-1,3,5-triazin-2-yl]spiro[6H-thieno[3,4-b]thiophene-4,3′-azetidine]-3-carbonitrile]
[2]
  IC50: < 10 nM
[3]
  IC50: < 10 nM
[4]
  IC50: 1000 to 20000 nM

## C[C@H](c1cccnc1N)N(CC#N)c1nc(OC[C@@]23CCCN2C[C@H](F)C3)nc(N2CC3(C2)SCc2sc(N)c(C#N)c23)n1 [Compound 246, 2′-amino-1-(4-(((R)-1-(2-aminopyridin-3-yl)ethyl)(cyanomethyl)amino)-6-(((2R,7aS)-2-fluorotetrahydro-TH-pyrrolizin-7a(5H)-yl)methoxy)-1,3,5-triazin-2-yl)-6′H-spiro[azetidine-3,4′-thieno[3,4-b]thiophene]-3′-carbonitrile]
[2]
  IC50: < 10 nM
[3]
  IC50: < 10 nM
[4]
  IC50: < 10 nM

## C#CCN(c1nc(OC[C@@]23CCCN2C[C@H](F)C3)nc(N2CC3(C2)SCc2sc(N)c(C#N)c23)n1)C1(C#N)CC1 [Compound 247, 2-amino-1′-[4-[(1-cyanocyclopropyl)-prop-2-ynyl-amino]-6-[[(2R,8S)-2-fluoro-1,2,3,5,6,7-hexahydropyrrolizin-8-yl]methoxy]-1,3,5-triazin-2-yl]spiro[6H-thieno[3,4-b]thiophene-4,3′-azetidine]-3-carbonitrile]
[2]
  IC50: < 10 nM
[3]
  IC50: < 10 nM
[4]
  IC50: 100 to 1000 nM

## CC(CC#N)N(C)c1nc(OC[C@@]23CCCN2C[C@H](F)C3)nc(N2CC3(C2)SCc2sc(N)c(C#N)c23)n1 (stereo partly drawn) [Compound 249, 2-amino-1′-[4-[(2-cyano-1-methyl-ethyl)-methyl-amino]-6-[[(2R,8S)-2-fluoro-1,2,3,5,6,7-hexahydropyrrolizin-8-yl]methoxy]-1,3,5-triazin-2-yl]spiro[6H-thieno[2,3-c]thiophene-4,3′-azetidine]-3-carbonitrile]
[2]
  IC50: < 10 nM
[3]
  IC50: < 10 nM
[4]
  IC50: 1000 to 20000 nM

## CC(c1c[nH]nn1)N(CC#N)c1nc(OC[C@@]23CCCN2C[C@H](F)C3)nc(N2CC3(C2)SCc2sc(N)c(C#N)c23)n1 (stereo partly drawn) [Compound 250, 2-amino-1′-[4-[cyanomethyl-[1-(1H-triazol-4-yl)ethyl]amino]-6-[[(2R,8S)-2-fluoro-1,2,3,5,6,7-hexahydropyrrolizin-8-yl]methoxy]-1,3,5-triazin-2-yl]spiro[6H-thieno[3,4-b]thiophene-4,3′-azetidine]-3-carbonitrile]
[2]
  IC50: < 10 nM
[3]
  IC50: < 10 nM
[4]
  IC50: 100 to 1000 nM

## N#CCN(c1nc(OC[C@@]23CCCN2C[C@H](F)C3)nc(N2CC3(C2)SCc2sc(N)c(C#N)c23)n1)C1(C#N)CC1 [Compound 251, 2-amino-1′-[4-[(1-cyanocyclopropyl)-(cyanomethyl)amino]-6-[[(2R,8S)-2-fluoro-1,2,3,5,6,7-hexahydropyrrolizin-8-yl]methoxy]-1,3,5-triazin-2-yl]spiro[6H-thieno[3,4-b]thiophene-4,3′-azetidine]-3-carbonitrile]
[2]
  IC50: < 10 nM
[3]
  IC50: < 10 nM
[4]
  IC50: 10 to 100 nM

## CCN(c1nc(OC[C@@]23CCCN2C[C@H](F)C3)nc(N2CC3(C2)SCc2sc(N)c(C#N)c23)n1)C(C)CC#N (stereo partly drawn) [Compound 254, 2-amino-1′-[4-[(2-cyano-1-methyl-ethyl)-ethyl-amino]-6-[[(2R,8S)-2-fluoro-1,2,3,5,6,7-hexahydropyrrolizin-8-yl]methoxy]-1,3,5-triazin-2-yl]spiro[6H-thieno[3,4-b]thiophene-4,3′-azetidine]-3-carbonitrile; formic acid]
[2]
  IC50: < 10 nM
[3]
  IC50: < 10 nM
[4]
  IC50: 100 to 1000 nM

## N#Cc1c(N)sc2c1C1(CN(c3nc(OC[C@@]45CCCN4C[C@H](F)C5)nc(N4CC(O)NC(=O)C45CC5)n3)C1)SC2 (stereo partly drawn) [Compound 255, 2-amino-1′-[4-[[(2R,8S)-2-fluoro-1,2,3,5,6,7-hexahydropyrrolizin-8-yl]methoxy]-6-(6-hydroxy-8-oxo-4,7-diazaspiro[2.5]octan-4-yl)-1,3,5-triazin-2-yl]spiro[6H-thieno[3,4-b]thiophene-4,3′-azetidine]-3-carbonitrile]
[2]
  IC50: < 10 nM
[3]
  IC50: < 10 nM
[4]
  IC50: 1000 to 20000 nM
